Results: patent publication US11731976B2, “3-(ethoxydifluoromethyl)-6-(5-fluoro-6-(2,2,2-trifluoroethoxy)pyridin-3-yl)-[1,2,4]triazolo[4,3-a]pyridine as an ion channel modulator” (Praxis Precision Medicines, Inc., priority 2018, dated 2023)

What follows are molecules tested against T1, human NaV1.6 (hNaV1.6) (Homo sapiens, UniProt Q9UQD0) (assay: Modulation of late sodium current (INaL), PatchXpress electrophysiology, HEK-293 cells expressing hNaV1.6). Settings: HEK293, late current evoked by 300 nM ATX-II, read-out: NaV 1.6 Assay Data: percent inhibition of INaL at hNaV1.6.
T1 construct: expressed in transfected cells; host or cells: HEK-293
T1 sequence (Q9UQD0 whole entry): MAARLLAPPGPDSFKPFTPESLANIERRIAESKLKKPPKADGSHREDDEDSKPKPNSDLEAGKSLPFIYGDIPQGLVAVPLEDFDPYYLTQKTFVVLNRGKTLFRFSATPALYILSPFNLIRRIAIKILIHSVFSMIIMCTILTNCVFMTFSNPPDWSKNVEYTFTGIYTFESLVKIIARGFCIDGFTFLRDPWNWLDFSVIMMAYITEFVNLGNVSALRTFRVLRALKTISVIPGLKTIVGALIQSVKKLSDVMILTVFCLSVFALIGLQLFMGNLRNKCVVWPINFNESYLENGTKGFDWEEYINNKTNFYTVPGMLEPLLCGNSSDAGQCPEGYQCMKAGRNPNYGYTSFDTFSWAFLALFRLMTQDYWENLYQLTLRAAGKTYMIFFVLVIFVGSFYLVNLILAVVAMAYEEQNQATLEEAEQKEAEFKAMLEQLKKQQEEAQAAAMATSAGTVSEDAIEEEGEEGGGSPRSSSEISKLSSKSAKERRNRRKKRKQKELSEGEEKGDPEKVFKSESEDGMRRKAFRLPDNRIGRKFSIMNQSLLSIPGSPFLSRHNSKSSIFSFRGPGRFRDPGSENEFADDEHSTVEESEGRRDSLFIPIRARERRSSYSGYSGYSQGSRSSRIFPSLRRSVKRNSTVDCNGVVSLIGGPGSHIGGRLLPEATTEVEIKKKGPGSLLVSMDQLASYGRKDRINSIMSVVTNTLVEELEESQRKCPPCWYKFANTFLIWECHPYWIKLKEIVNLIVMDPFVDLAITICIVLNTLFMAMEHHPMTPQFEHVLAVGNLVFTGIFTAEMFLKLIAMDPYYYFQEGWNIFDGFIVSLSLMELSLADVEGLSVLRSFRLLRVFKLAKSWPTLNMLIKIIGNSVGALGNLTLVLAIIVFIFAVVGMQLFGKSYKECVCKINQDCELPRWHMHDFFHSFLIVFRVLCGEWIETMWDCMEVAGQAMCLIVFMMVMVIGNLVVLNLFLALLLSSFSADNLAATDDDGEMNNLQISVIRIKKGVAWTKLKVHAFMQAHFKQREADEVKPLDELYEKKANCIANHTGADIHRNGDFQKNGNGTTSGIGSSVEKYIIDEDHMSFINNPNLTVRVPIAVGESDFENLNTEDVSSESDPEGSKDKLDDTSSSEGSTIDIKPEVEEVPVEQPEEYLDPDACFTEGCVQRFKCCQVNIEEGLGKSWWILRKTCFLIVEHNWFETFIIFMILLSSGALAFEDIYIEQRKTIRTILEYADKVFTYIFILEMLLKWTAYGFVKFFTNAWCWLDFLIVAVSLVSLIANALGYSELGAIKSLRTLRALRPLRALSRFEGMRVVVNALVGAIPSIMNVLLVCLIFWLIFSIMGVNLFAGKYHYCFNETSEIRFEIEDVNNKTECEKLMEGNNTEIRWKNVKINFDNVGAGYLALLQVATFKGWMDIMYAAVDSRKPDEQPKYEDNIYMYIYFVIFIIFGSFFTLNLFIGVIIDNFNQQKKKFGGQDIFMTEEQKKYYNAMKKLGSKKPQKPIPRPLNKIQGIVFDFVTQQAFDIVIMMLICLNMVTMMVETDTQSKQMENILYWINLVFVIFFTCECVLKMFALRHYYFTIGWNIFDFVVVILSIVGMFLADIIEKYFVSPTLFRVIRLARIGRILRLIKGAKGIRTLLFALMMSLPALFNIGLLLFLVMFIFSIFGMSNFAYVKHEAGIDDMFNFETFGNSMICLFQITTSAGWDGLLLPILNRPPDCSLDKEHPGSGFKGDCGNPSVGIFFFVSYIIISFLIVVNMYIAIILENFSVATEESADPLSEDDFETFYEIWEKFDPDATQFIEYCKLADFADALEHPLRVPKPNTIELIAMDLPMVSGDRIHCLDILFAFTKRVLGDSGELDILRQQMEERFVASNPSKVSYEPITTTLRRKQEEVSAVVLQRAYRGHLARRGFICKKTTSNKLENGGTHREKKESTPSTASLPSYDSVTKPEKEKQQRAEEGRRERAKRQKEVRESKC
Type: cell-based
Experimental: Functional characterization of exemplary compounds to modulate INaL expressed by the NaV1.6 voltage-gated sodium channel was accomplished using the PatchXpress™ high throughput electrophysiology platform (Molecular Devices, Sunnyvale, Calif.). HEK-293 cells expressing recombinant, human NaV1.6 (hNaV1.6) were grown in DMEM/high-glucose Dulbecco's modified, 10% FBS, 2 mM sodium pyruvate, 10 mM HEPES and 400 μg/mL G418. Cells were grown to 50%-80% confluency prior to harvesting. Trypsinized cells were washed, allowed to recover for 1 hour and then resuspended in extracellular recording solution at a concentration of 1×10^6 cells/ml. The onboard liquid handling facility of the PatchXpress was used for dispensing cells and applying test compounds. NaV late currents were evoked by the application of 300 nM ATX-II. INaL was evoked by depolarizing pulses to 0 mV for 200 ms from a non-inactivating holding potential (e.g., −120 mV) at a frequency of 0.1 Hz. INaL amplitude and stability were determined by analyzing the mean current amplitude over the final 20 ms of the test pulse. Following steady state block with exemplary compounds (e.g., as described herein), a Na+ free solution containing an impermeant cation (e.g., Choline or NDMG) was added to confirm the identify of the sodium current. Percent steady-state inhibition of INaL was calculated as: [(INaL_compound)/(INaL_control)]*100, where INaL_compound and INaL_control represent INaL recorded in the presence or absence of compound, respectively.
Molecule `CC(C)COC(F)(F)c1nnc2cnc(-c3cnc(OCC(F)(F)F)c(F)c3)cn12` [Compound 82, 3-(difluoro(isobutoxy)methyl)-6-(5-fluoro-6-(2,2,2-trifluoroethoxy)pyridin-3-yl)-[1,2,4]triazolo[4,3-a]pyrazine] has an inhibition at 1 µM greater than 70%.
`CC(C)OC(F)(F)c1nnc2ccc(-c3cnc(OCC(F)(F)F)c(F)c3)cn12` [Compound 4, 3-[difluoro(isopropoxy)methyl]-6-[5-fluoro-6-(2,2,2-trifluoroethoxy)-3-pyridyl]-[1,2,4]triazolo[4,3-a]pyridine] gave an inhibition at 1 µM greater than 70%.
`C[C@H](Oc1ncc(-c2ccc3nnc(C(F)(F)OCC4CC4)n3c2)cc1F)C(F)(F)F` [Compound 19, 3-[cyclopropylmethoxy(difluoro)methyl]-6-[5-fluoro-6-[(1S)-2,2,2-trifluoro-1-methyl-ethoxy]-3-pyridyl]-[1,2,4]triazolo[4,3-a]pyridine] gave an inhibition at 1 µM greater than 70%.
`CCOC(F)(F)c1nnc2cnc(-c3ccc(OCC(F)(F)F)nc3)cn12` [Compound 81, 3-(ethoxydifluoromethyl)-6-(6-(2,2,2-trifluoroethoxy)pyridin-3-yl)-[1,2,4]triazolo[4,3-a]pyrazine] showed an inhibition at 1 µM greater than 70%.
With `COC(F)(F)c1nnc2cnc(-c3cnc(O[C@@H](C)C(F)(F)F)c(F)c3)c(C)n12` [Compound 58, 3-[difluoro(methoxy)methyl]-6-[5-fluoro-6-[(1S)-2,2,2-trifluoro-1-methyl-ethoxy]-3-pyridyl]-5-methyl-[1,2,4]triazolo[4,3-a]pyrazine] the inhibition at 1 µM was greater than 70%.
With `CCOC(F)(F)c1nnc2ccc(-c3cnc(O[C@H](C)C(F)(F)F)c(F)c3)nn12` [Compound 42, 3-[ethoxy(difluoro)methyl]-6-[5-fluoro-6-[(1R)-2,2,2-trifluoro-1-methyl-ethoxy]-3-pyridyl]-[1,2,4]triazolo[4,3-b]pyridazine] the inhibition at 1 µM was greater than 70%.
`COC(F)(F)c1nnc2cnc(-c3cnc(O[C@H](C)C(F)(F)F)c(F)c3)c(C)n12` [Compound 60, 3-[difluoro(methoxy)methyl]-6-[5-fluoro-6-[(1R)-2,2,2-trifluoro-1-methyl-ethoxy]-3-pyridyl]-5-methyl-[1,2,4]triazolo[4,3-a]pyrazine] gave an inhibition at 1 µM of 30 to 70%.
In the case of `COCc1nnc2ccc(-c3cnc(O[C@H](C)C(F)(F)F)c(F)c3)cn12` [Compound 40, 6-[5-fluoro-6-[(1R)-2,2,2-trifluoro-1-methyl-ethoxy]-3-pyridyl]-3-(methoxymethyl)-[1,2,4]triazolo[4,3-a]pyridine], the inhibition at 1 µM is reported as less than 30%.
`COC(F)(F)c1nnc2ccc(-c3cnc(O[C@H](C)C(F)(F)F)c(F)c3)cn12` [Compound 8, 3-[difluoro(methoxy)methyl]-6-[5-fluoro-6-[(1R)-2,2,2-trifluoro-1-methyl-ethoxy]-3-pyridyl]-[1,2,4]triazolo[4,3-a]pyridine] gave an inhibition at 1 µM greater than 70%.
With `COCc1nnc2ccc(-c3cnc(OC(C)(C)C(F)(F)F)c(F)c3)cn12` [Compound 28, 6-[5-fluoro-6-(2,2,2-trifluoro-1,1-dimethyl-ethoxy)-3-pyridyl]-3-(methoxymethyl)-[1,2,4]triazolo[4,3-a]pyridine] the inhibition at 1 µM was greater than 70%.
`COC(F)(F)c1nnc2ccc(-c3cnc(O[C@@H](C)C(F)(F)F)c(F)c3)nn12` [Compound 12, 3-[difluoro(methoxy)methyl]-6-[5-fluoro-6-[(1S)-2,2,2-trifluoro-1-methyl-ethoxy]-3-pyridyl]-[1,2,4]triazolo[4,3-b]pyridazine] gave an inhibition at 1 µM greater than 70%.
`COCc1nnc2cnc(-c3cnc(O[C@H](C)C(F)(F)F)c(F)c3)cn12` [Compound 31, 6-[5-fluoro-6-[(1R)-2,2,2-trifluoro-1-methyl-ethoxy]-3-pyridyl]-3-(methoxymethyl)-[1,2,4]triazolo[4,3-a]pyrazine] was tested, and the inhibition at 1 µM was less than 30%.
Work on `FC(F)(F)COc1ccc(-c2cn3c(C(F)(F)OC4CC4)nnc3cn2)cn1` [Compound 74, 3-(cyclopropoxydifluoromethyl)-6-(6-(2,2,2-trifluoroethoxy)pyridin-3-yl)-[1,2,4]triazolo[4,3-a]pyrazine] yielded an inhibition at 1 µM greater than 70%.
`COCc1nnc2ccc(-c3cnc(OC(C)(C)C(F)(F)F)c(F)c3)nn12` [Compound 27, 6-[5-fluoro-6-(2,2,2-trifluoro-1,1-dimethyl-ethoxy)-3-pyridyl]-3-(methoxymethyl)-[1,2,4]triazolo[4,3-b]pyridazine] gave an inhibition at 1 µM greater than 70%.
In the case of `CC(C)COC(F)(F)c1nnc2ccc(-c3cnc(O[C@H](C)C(F)(F)F)c(F)c3)cn12` [Compound 23, 3-[difluoro(isobutoxy)methyl]-6-[5-fluoro-6-[(1R)-2,2,2-trifluoro-1-methyl-ethoxy]-3-pyridyl]-[1,2,4]triazolo[4,3-a]pyridine], the inhibition at 1 µM is reported as greater than 70%.
Molecule `C[C@H](Oc1ncc(-c2ccc3nnc(C(F)(F)OC4CC4)n3c2)cc1F)C(F)(F)F` [Compound 37, 3-[cyclopropoxy(difluoro)methyl]-6-[5-fluoro-6-[(1S)-2,2,2-trifluoro-1-methyl-ethoxy]-3-pyridyl]-[1,2,4]triazolo[4,3-a]pyridine] has an inhibition at 1 µM greater than 70%.
`CCOC(F)(F)c1nnc2cnc(-c3cnc(O[C@H](C)C(F)(F)F)c(F)c3)cn12` [Compound 26, 3-[ethoxy(difluoro)methyl]-6-[5-fluoro-6-[(1R)-2,2,2-trifluoro-1-methyl-ethoxy]-3-pyridyl]-[1,2,4]triazolo[4,3-a]pyrazine] gave an inhibition at 1 µM greater than 70%.
`CCOC(F)(F)c1nnc2cnc(-c3cnc(O[C@@H](C)C(F)(F)F)c(F)c3)cn12` [Compound 33, 3-[ethoxy(difluoro)methyl]-6-[5-fluoro-6-[(1S)-2,2,2-trifluoro-1-methyl-ethoxy]-3-pyridyl]-[1,2,4]triazolo[4,3-a]pyrazine] was tested, and the inhibition at 1 µM was greater than 70%.
Work on `C[C@@H](Oc1ncc(-c2ccc3nnc(C(F)(F)OC4CC4)n3c2)cc1F)C(F)(F)F` [Compound 36, 3-[cyclopropoxy(difluoro)methyl]-6-[5-fluoro-6-[(1R)-2,2,2-trifluoro-1-methyl-ethoxy]-3-pyridyl]-[1,2,4]triazolo[4,3-a]pyridine] yielded an inhibition at 1 µM greater than 70%.
`COC(F)(F)c1nnc2cnc(-c3cnc(O[C@H](C)C(F)(F)F)c(F)c3)cn12` (racemic) [Compound 6A, 3-[difluoro(methoxy)methyl]-6-[5-fluoro-6-[rac-(1R)-2,2,2-trifluoro-1-methyl-ethoxy]-3-pyridyl]-[1,2,4]triazolo[4,3-a]pyrazine] showed an inhibition at 1 µM greater than 70%.
For `COCc1nnc2cc(C)c(-c3cnc(O[C@H](C)C(F)(F)F)c(F)c3)nn12` [Compound 72, 6-[5-fluoro-6-[(1R)-2,2,2-trifluoro-1-methyl-ethoxy]-3-pyridyl]-3-(methoxymethyl)-7-methyl-[1,2,4]triazolo[4,3-b]pyridazine], the inhibition at 1 µM was less than 30%.
`COCc1nnc2ccc(-c3cnc(O[C@@H](C)C(F)(F)F)c(F)c3)cn12` [Compound 43, 6-[5-fluoro-6-[(1S)-2,2,2-trifluoro-1-methyl-ethoxy]-3-pyridyl]-3-(methoxymethyl)-[1,2,4]triazolo[4,3-a]pyridine] was tested, and the inhibition at 1 µM was 30 to 70%.
Work on `CCOCc1nnc2cnc(-c3cnc(O[C@@H](C)C(F)(F)F)c(F)c3)cn12` [Compound 50, 3-(ethoxymethyl)-6-[5-fluoro-6-[(1S)-2,2,2-trifluoro-1-methyl-ethoxy]-3-pyridyl]-[1,2,4]triazolo[4,3-a]pyrazine] yielded an inhibition at 1 µM greater than 70%.
For `CCOC(F)(F)c1nnc2cnc(-c3cnc(OC4CC(F)(F)C4)c(F)c3)cn12` [Compound 77, 6-(6-(3,3-difluorocyclobutoxy)-5-fluoropyridin-3-yl)-3-(ethoxydifluoromethyl)-[1,2,4]triazolo[4,3-a]pyrazine], the inhibition at 1 µM was greater than 70%.
`COC(F)(F)c1nnc2cnc(-c3cnc(OC4CC(F)(F)C4)c(F)c3)cn12` [Compound 76, 3-(difluoro(methoxy)methyl)-6-(6-(3,3-difluorocyclobutoxy)-5-fluoropyridin-3-yl)-[1,2,4]triazolo[4,3-a]pyrazine] showed an inhibition at 1 µM greater than 70%.
`CCOCc1nnc2cnc(-c3cnc(O[C@H](C)C(F)(F)F)c(F)c3)cn12` [Compound 52, 3-(ethoxymethyl)-6-[5-fluoro-6-[(1R)-2,2,2-trifluoro-1-methyl-ethoxy]-3-pyridyl]-[1,2,4]triazolo[4,3-a]pyrazine] showed an inhibition at 1 µM of 30 to 70%.
In the case of `COC(F)(F)c1nnc2cc(C)c(-c3cnc(O[C@H](C)C(F)(F)F)c(F)c3)nn12` [Compound 66, 3-[difluoro(methoxy)methyl]-6-[5-fluoro-6-[(1R)-2,2,2-trifluoro-1-methyl-ethoxy]-3-pyridyl]-7-methyl-[1,2,4]triazolo[4,3-b]pyridazine], the inhibition at 1 µM is reported as greater than 70%.
`CCOC(F)(F)c1nnc2cnc(-c3cnc(OCc4ccccc4)c(F)c3)cn12` [Compound 64, 6-(6-benzyloxy-5-fluoro-3-pyridyl)-3-[ethoxy(difluoro)methyl]-[1,2,4]triazolo[4,3-a]pyrazine] showed an inhibition at 1 µM greater than 70%.
Molecule `COCc1nnc2cc(C)c(-c3cnc(OCC(F)(F)F)c(F)c3)nn12` [Compound 71, 6-[5-fluoro-6-(2,2,2-trifluoroethoxy)-3-pyridyl]-3-(methoxymethyl)-7-methyl-[1,2,4]triazolo[4,3-b]pyridazine] has an inhibition at 1 µM of less than 30%.
